Where a name gives a salt, the structure may show the parent alone.
Target: T1, human CDK9/CyclinT kinase complex (Homo sapiens, UniProt P50750)
T1 construct: purchased Proqinase 0371-0345-1
Assay: In vitro CDK9/CyclinT assay (IMAP fluorescence polarization kinase assay)
Assay type: biochemical
Conditions: for IC50: 5 nM CDK9/CyclinT, 400 nM TAMRA-Rbtide, 12 μM ATP, 1 hour at room temperature, read-out: CDK9 inhibitory range
Method: In Vitro CDK9/CyclinT Assay
The activity of the compounds described in the present invention can be determined by the following kinase assay, which measures the phosphorylation of a fluorescently-labeled peptide by human CDK9/CyclinT kinase complex by fluorescent polarization using a commercially available IMAP Screening Express Assay Kit (Molecular devices).
CDK9 kinase assays were performed in low protein binding 384-well plates (Corning 3676). Test compounds were diluted in 100% DMSO to 5 mM stock concentration, then further dilutions were made in H2O or 100% DMSO to desirable concentrations.
Each reaction consisted of 5 nM enzyme: CDK9/CyclinT (Proqinase cat#0371-0345-1), 400 nM TAMRA-Rbtide (synthetic 15-mer peptide derived from human retinoblastoma tumor suppressor protein labelled with TAMRA dye, Genecust Europe), 12 μM ATP (=Kmapp, Sigma-Aldrich) and kinase buffer: 20 mM MOPS pH 7 (Sigma-Aldrich), 1 mM DTT (Sigma-Aldrich), 10 mM MgCl2 (Sigma-Aldrich), 0.01% Tween 20 (Sigma-Aldrich).
For each reaction, 4 or 6 μl containing TAMRA-Rbtide, ATP and kianse buffer were combined with 2 μl diluted compound in H2O or 0.028 μl compound in 100% DMSO. The kinase reaction was started by the addition of 2 μl diluted enzyme. The reaction was allowed to run for 1 hours at room temperature. The reaction was stopped by adding 15 μl IMAP beads (1:400 beads in progressive (100% buffer A) 1× buffer). After an additional 1 hours, fluorescent polarization (Ex: 550-10 nm, Em: 590-10 nm, Dich: 561 nm) was measured using an Analyst GT (Molecular devices).

T1 sequence (P50750 whole entry): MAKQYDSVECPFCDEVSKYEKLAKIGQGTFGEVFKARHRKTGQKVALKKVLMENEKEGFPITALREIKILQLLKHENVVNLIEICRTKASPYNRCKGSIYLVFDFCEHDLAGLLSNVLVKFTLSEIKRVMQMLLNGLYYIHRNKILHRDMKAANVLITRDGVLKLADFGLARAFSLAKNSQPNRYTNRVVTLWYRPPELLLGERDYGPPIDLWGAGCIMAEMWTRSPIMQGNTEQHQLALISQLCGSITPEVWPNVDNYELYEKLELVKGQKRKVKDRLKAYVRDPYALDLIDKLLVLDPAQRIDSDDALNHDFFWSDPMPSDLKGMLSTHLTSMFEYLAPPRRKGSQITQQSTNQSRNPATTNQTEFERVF
T1 sequence (O60563 whole entry partner): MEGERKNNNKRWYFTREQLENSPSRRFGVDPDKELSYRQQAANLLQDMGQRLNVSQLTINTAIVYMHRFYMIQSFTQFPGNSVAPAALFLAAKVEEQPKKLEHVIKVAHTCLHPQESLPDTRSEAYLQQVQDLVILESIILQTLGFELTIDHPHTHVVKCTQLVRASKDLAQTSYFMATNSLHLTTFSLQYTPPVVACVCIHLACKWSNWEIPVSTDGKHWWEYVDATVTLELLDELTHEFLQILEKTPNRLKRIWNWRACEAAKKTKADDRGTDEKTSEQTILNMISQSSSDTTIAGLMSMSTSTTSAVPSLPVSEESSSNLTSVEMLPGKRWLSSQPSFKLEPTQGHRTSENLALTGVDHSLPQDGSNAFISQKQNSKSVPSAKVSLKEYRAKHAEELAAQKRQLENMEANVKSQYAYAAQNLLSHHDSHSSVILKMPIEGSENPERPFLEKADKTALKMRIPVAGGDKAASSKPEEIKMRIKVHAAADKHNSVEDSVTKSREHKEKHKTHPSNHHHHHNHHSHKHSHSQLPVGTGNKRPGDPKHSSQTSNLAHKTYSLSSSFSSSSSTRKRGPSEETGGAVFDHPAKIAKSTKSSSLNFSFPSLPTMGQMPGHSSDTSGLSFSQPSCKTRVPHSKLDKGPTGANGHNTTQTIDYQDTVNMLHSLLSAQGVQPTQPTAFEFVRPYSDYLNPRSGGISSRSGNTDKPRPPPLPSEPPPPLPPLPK

CDK9 inhibitory effect	IC50 [nM]	SMILES
nanomolar or low nanomolar range	< 100	COc1cc(F)ccc1-c1cc(Nc2cccc(CNS(C)(=O)=O)c2)ncn1 [Example 7, N-{3-[6-(4-Fluoro-2-methoxy-phenyl)-pyrimidin-4-ylamino]-benzyl}-methanesulfonamide]
	> 10000	CS(=O)(=O)NCc1cccc(Nc2cc(-c3ccccc3C(F)(F)F)ncn2)c1 [Example 18, N-{3-[6-(2-Trifluoromethyl-phenyl)-pyrimidin-4-ylamino]-benzyl}-methanesulfonamide]
nanomolar or low nanomolar range	< 100	COc1ccccc1-c1cc(Nc2cccc(CN)c2)ncn1 [Example 69, (3-Aminomethyl-phenyl)-[6-(2-methoxy-phenyl)-pyrimidin-4-yl]-amine hydrochloride]
	< 10000	COc1ccc(-c2cc(Nc3cccc(CNS(C)(=O)=O)c3)ncn2)cc1 [Example 19, N-{3-[6-(4-Methoxy-phenyl)-pyrimidin-4-ylamino]-benzyl}-methanesulfonamide]
nanomolar or low nanomolar range	< 100	CC(C)Oc1ccccc1-c1cc(Nc2ccc(CNS(C)(=O)=O)cc2)ncn1 [Example 56, N-{4-[6-(2-Isopropoxy-phenyl)-pyrimidin-4-ylamino]-benzyl}-methanesulfonamide]
	< 10000	CS(=O)(=O)NCc1cccc(Nc2cc(-c3ccccc3OC(F)(F)F)ncn2)c1 [Example 15, N-{3-[6-(2-Trifluoromethoxy-phenyl)-pyrimidin-4-ylamino]-benzyl}-methanesulfonamide]
	< 10000	CS(=O)(=O)NCc1cccc(Nc2cc(-c3ccccc3)ncn2)c1 [Example 21, N-[3-(6-Phenyl-pyrimidin-4-ylamino)-benzyl]-methanesulfonamide]
	< 1000	COc1ccccc1-c1cc(Nc2ccc(CNS(C)(=O)=O)cc2)ncn1 [Example 34, N-{4-[6-(2-Methoxy-phenyl)-pyrimidin-4-ylamino]-benzyl}-methanesulfonamide]
	< 1000	COc1ccccc1-c1cc(Nc2cccc(CNS(=O)(=O)c3cccs3)c2)ncn1 [Example 73, Thiophene-2-sulfonic acid 3-[6-(2-methoxy-phenyl)-pyrimidin-4-ylamino]-benzylamide]
	< 1000	COc1ccccc1-c1cc(Nc2cccc(CNS(=O)(=O)Cc3ccccc3)c2)ncn1 [Example 74, N-{3-[6-(2-Methoxy-phenyl)-pyrimidin-4-ylamino]-benzyl}-C-phenyl-methanesulfonamide]
	< 10000	CS(=O)(=O)NCc1cccc(Nc2cc(-c3ccccc3F)ncn2)c1 [Example 16, N-{3-[6-(2-Fluoro-phenyl)-pyrimidin-4-ylamino]-benzyl}-methanesulfonamide]
nanomolar or low nanomolar range	< 100	COc1ccccc1-c1cc(Nc2cccc(CNS(C)(=O)=O)c2)ncn1 [Example 6, N-{3-[6-(2-Methoxy-phenyl)-pyrimidin-4-ylamino]-benzyl}-methanesulfonamide]
	< 1000	CS(=O)(=O)NCc1ccc(Nc2cc(-c3ccccc3OCc3cccc(F)c3)ncn2)cc1 [Example 49, N-(4-{6-[2-(3-Fluoro-benzyloxy)-phenyl]-pyrimidin-4-ylamino}-benzyl)-methanesulfonamide]
	< 1000	COc1ccccc1-c1cc(Nc2cccc(CNS(=O)(=O)c3ccc(F)cc3)c2)ncn1 [Example 72, 4-Fluoro-N-{3-[6-(2-methoxy-phenyl)-pyrimidin-4-ylamino]-benzyl}-benzenesulfonamide]
	< 1000	CS(=O)(=O)NCc1cccc(Nc2cc(-c3cn[nH]c3)ncn2)c1 [Example 32, N-{3-[6-(1H-Pyrazol-4-yl)-pyrimidin-4-ylamino]-benzyl}-methanesulfonamide]
	< 1000	CCCOc1ccccc1-c1cc(Nc2cccc(CNS(C)(=O)=O)c2)ncn1 [Example 31, N-{3-[6-(2-Propoxy-phenyl)-pyrimidin-4-ylamino]-benzyl}-methanesulfonamide]
	< 1000	CC(C)Oc1cc(F)ccc1-c1cc(Nc2cccc(CNS(C)(=O)=O)c2)ncn1 [Example 14, N-{3-[6-(4-Fluoro-2-isopropoxy-phenyl)-pyrimidin-4-ylamino]-benzyl}-methanesulfonamide]
	< 100	CS(=O)(=O)NCc1cccc(Nc2cc(-c3ccc(O)cc3)ncn2)c1 [Example 75, N-{3-[6-(4-Hydroxy-phenyl)-pyrimidin-4-ylamino]-benzyl}-methanesulfonamide]
nanomolar or low nanomolar range	< 100	CCOc1ccccc1-c1cc(Nc2ccc(CNS(C)(=O)=O)cc2)ncn1 [Example 37, N-{4-[6-(2-Ethoxy-phenyl)-pyrimidin-4-ylamino]-benzyl}-methanesulfonamide]
nanomolar or low nanomolar range	< 100	COc1cc(F)ccc1-c1cc(Nc2ccc(CNS(C)(=O)=O)cc2)ncn1 [Example 39, N-{4-[6-(4-Fluoro-2-methoxy-phenyl)-pyrimidin-4-ylamino]-benzyl}-methanesulfonamide]

More lines, now with the values behind:

SMILES	CDK9 inhibitory effect	IC50 [nM]
C=C(c1ccccc1)c1cc(Nc2cccc(CNS(C)(=O)=O)c2)ncn1 [Example 3]		< 10000
COc1ccc(F)cc1-c1cc(Nc2cccc(CNc3nc4ccccc4[nH]3)c2)ncn1 [Example 62, (1H-Benzoimidazol-2-yl)-{3-[6-(5-fluoro-2-methoxy-phenyl)-pyrimidin-4-ylamino]-benzyl}-amine]		< 1000
COc1cccc(F)c1-c1cc(Nc2cccc(Cn3cnc4ccccc43)c2)ncn1 [Example 79, (3-Benzoimidazol-1-ylmethyl-phenyl)-[6-(2-fluoro-6-methoxy-phenyl)-pyrimidin-4-yl]-amine]		< 100
Oc1ccc(-c2cc(Nc3ccc(Cn4cnc5ccccc54)cc3)ncn2)cc1 [Example 89, 4-[6-(4-Benzoimidazol-1-ylmethyl-phenylamino)-pyrimidin-4-yl]-phenol]		< 1000
CS(=O)(=O)NCc1cccc(Nc2cc(Cl)ncn2)c1 [Example 1, N-[3-(6-Chloro-pyrimidin-4-ylamino)-benzyl]-methanesulfonamide]		> 10000
COc1cc(Cl)ccc1-c1cc(Nc2ccc(CNS(C)(=O)=O)cc2)ncn1 [Example 54, N-{4-[6-(4-Chloro-2-methoxy-phenyl)-pyrimidin-4-ylamino]-benzyl}-methanesulfonamide]	nanomolar or low nanomolar range	< 100
COc1ccc(COc2ccccc2-c2cc(Nc3ccc(CNS(C)(=O)=O)cc3)ncn2)cc1 [Example 50, N-(4-{6-[2-(4-Methoxy-benzyloxy)-phenyl]-pyrimidin-4-ylamino}-benzyl)-methanesulfonamide]		< 1000
Clc1cc(Nc2cccc(Cn3ccc4ccccc43)c2)ncn1 [Example 90, (6-Chloro-pyrimidin-4-yl)-(3-indol-1-ylmethyl-phenyl)-amine]		> 10000
COc1ccccc1-c1cc(Nc2cccc(CN3C(=O)c4ccccc4C3=O)c2)ncn1 [Example 68, 2-{3-[6-(2-Methoxy-phenyl)-pyrimidin-4-ylamino]-benzyl}-isoindole-1,3-dione]	nanomolar or low nanomolar range	< 100
COc1ccccc1-c1cc(Nc2cccc(Cn3c(CN4CCOCC4)nc4ccccc43)c2)ncn1 [Example 93, [6-(2-Methoxy-phenyl)-pyrimidin-4-yl]-[3-(2-morpholin-4-ylmethyl-benzoimidazol-1-ylmethyl)-phenyl]-amine]		< 10000
COc1ccccc1-c1cc(Nc2cccc(CNc3nc4ccccc4[nH]3)c2)ncn1 [Example 60, (1H-Benzoimidazol-2-yl)-{3-[6-(2-methoxy-phenyl)-pyrimidin-4-ylamino]-benzyl}-amine]		< 1000
COc1ccccc1-c1cc(Nc2ccc(Cn3cnc4ccccc43)cc2)ncn1 [Example 87, (4-Benzoimidazol-1-ylmethyl-phenyl)-[6-(2-methoxy-phenyl)-pyrimidin-4-yl]-amine]		< 1000
Clc1cc(Nc2ccc(Cn3cnc4ccccc43)cc2)ncn1 [Example 86, (4-Benzoimidazol-1-ylmethyl-phenyl)-(6-chloro-pyrimidin-4-yl)-amine]		> 10000
CS(=O)(=O)NCc1ccc(Nc2cc(-c3cn[nH]c3)ncn2)cc1 [Example 58, N-{4-[6-(1H-Pyrazol-4-yl)-pyrimidin-4-ylamino]-benzyl}-methanesulfonamide]		> 10000
CC(C)Oc1cc(F)ccc1-c1cc(Nc2ccc(Cn3cnc4ccccc43)cc2)ncn1 [Example 88, (4-Benzoimidazol-1-ylmethyl-phenyl)-[6-(4-fluoro-2-isopropoxy-phenyl)-pyrimidin-4-yl]-amine]		< 1000
COc1ccccc1-c1cc(Nc2cccc(CNC(=O)c3ccc(F)cc3)c2)ncn1 [Example 84, 4-Fluoro-N-{3-[6-(2-methoxy-phenyl)-pyrimidin-4-ylamino]-benzyl}-benzamide]		< 1000

Source: patent US9040529B2 (Vichem Chemie Kutató Kft., priority 2009, dated 2015)
